Measured values as given in BindingDB's records for doi:10.1016/s0960-894x(01)00011-7 (Institute, 2001).
pIC50: −log10 of the molar value.

Assay: Inhibitory activity against non-nucleoside reverse transcriptase inhibitors (NNRTI) -resistant HIV-1 strain A17 with a Y181C mutation in RT (reverse transcriptase)

Structure (SMILES)	pIC50
CCC(NC(=S)Nc1nccs1)c1ccccc1 (stereo not given) [1-(1-Phenyl-propyl)-3-thiazol-2-yl-thiourea]	5.68
S=C(NCCc1cccs1)Nc1ccc(Br)cn1 [1-(5-Bromo-pyridin-2-yl)-3-(2-thiophen-2-yl-ethyl)-thiourea]	7.32
Oc1ccc(CCNC(=S)Nc2ccc(Br)cn2)cc1 [1-(5-Bromo-pyridin-2-yl)-3-[2-(4-hydroxy-phenyl)-ethyl]-thiourea]	7.15

Assay: Inhibitory activity against non-nucleoside reverse transcriptase inhibitors (NNRTI) -resistant HIV-1 strain A17 with a Y181C mutation in reverse transcriptase

Structure (SMILES)	pIC50
S=C(NCCc1cccs1)Nc1nccs1 [1-Thiazol-2-yl-3-(2-thiophen-2-yl-ethyl)-thiourea]	< 4.00

Assay: Inhibitory activity against non-nucleoside reverse transcriptase inhibitors (NNRTI) -resistant HIV-1 strain A17 with a Y181C mutation in RT (reverse transcriptase)
Remark: another data set of the same source

Structure (SMILES)	pIC50
S=C(NCCC1=CCCCC1)Nc1nccs1 [1-(2-Cyclohex-1-enyl-ethyl)-3-thiazol-2-yl-thiourea]	6.05
S=C(NCCOc1ccccc1)Nc1nccs1 [1-(2-Phenoxy-ethyl)-3-thiazol-2-yl-thiourea]	5.36
S=C(NCC12CC3CC(CC(C3)C1)C2)Nc1nccs1 [1-Adamantan-1-ylmethyl-3-thiazol-2-yl-thiourea]	6.22
S=C(NCc1ccco1)Nc1nccs1 [1-Furan-2-ylmethyl-3-thiazol-2-yl-thiourea]	5.70
Cc1ccc(CCNC(=S)Nc2nccs2)cc1 [1-Thiazol-2-yl-3-(2-p-tolyl-ethyl)-thiourea]	5.41
S=C(NCCc1c[nH]c2ccccc12)Nc1nccs1 [1-[2-(1H-Indol-3-yl)-ethyl]-3-thiazol-2-yl-thiourea]	5.66
